Active and inactive are the calls of the source. The rule behind the calls is not given here. Square brackets hold non-standard residues; d marks the D form. Peptide text beside a SMILES is read from it. * marks the point of attachment. ξ: configuration not given here. C18 diacid = O=C(O)CCCCCCCCCCCCCCCCC(=O)*; Myristoyl = CCCCCCCCCCCCCC(=O)*; ξR = N=C(N)NCCCC(N)C(=O)O A value given as a limit tells only on which side of the number the result lay.

Two molecules from ChEMBL document CHEMBL5316338, “Discovery of Novel PTP1B Inhibitors with Once-Weekly Therapeutic Potential for Type 2 Diabetes: Design, Synthesis, and In Vitro and In Vivo Investigations of BimBH3 Peptide Analogues” (J Med Chem, 2023) can be followed below.

Series [1] has as its system Mus musculus. Put plainly: Antidiabetic activity against C57BL/Ks db/db mouse assessed as reduction in fasting blood glucose level at 1 uM/kg, sc administered once daily and measured on day 8 by glucometer analysis. Format: functional, organism-based. The following applies: time 8.0 day.
The target in series [2] is T1, Tyrosine-protein phosphatase non-receptor type 2 (Homo sapiens, UniProt P17706).
T1 sequence (P17706 whole entry): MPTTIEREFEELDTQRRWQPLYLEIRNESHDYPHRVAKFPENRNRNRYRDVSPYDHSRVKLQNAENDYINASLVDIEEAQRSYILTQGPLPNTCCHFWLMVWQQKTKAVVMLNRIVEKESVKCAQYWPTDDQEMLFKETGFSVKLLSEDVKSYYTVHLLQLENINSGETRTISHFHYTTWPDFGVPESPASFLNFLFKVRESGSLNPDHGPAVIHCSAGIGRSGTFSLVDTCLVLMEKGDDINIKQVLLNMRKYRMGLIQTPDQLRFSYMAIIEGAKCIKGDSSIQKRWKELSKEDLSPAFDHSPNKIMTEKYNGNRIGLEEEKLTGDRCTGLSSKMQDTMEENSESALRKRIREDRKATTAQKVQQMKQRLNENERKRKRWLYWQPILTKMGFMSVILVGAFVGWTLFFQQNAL
The series can be described thus: Inhibition of recombinant human TC-PTP (1 to 314 residues) expressed in baculovirus infected insect cells using pNPP as substrate assessed as substrate hydrolysis. The arrangement: species or system Insect cell.

Series [3] can be described thus: Stability of compound assessed as Pepsin (unknown origin) mediated compound degradation by measuring fold change of half-life by HPLC analysis relative to BimBH312-mer peptide. It is filed as ADME. The following applies: human.
For the next series, the species on record is Homo sapiens. The series can be described thus: Selectivity index, ratio of IC50 for inhibition of recombinant human TC-PTP (1 to 314 residues) expressed in baculovirus infected insect cells to IC50 for inhibition of N-terminal His-tagged recombinant human PTP1B expressed in Escherichia coli.
For series [4], the system named is Mus musculus. Put plainly: Antidiabetic activity against C57BL/Ks db/db mouse assessed as redcution in fasting blood glucose level at 1 umol/kg, sc administered once a week and measured on day 15 by glucometer analysis (reference value: 27.3 +/- 2.4 […]). It is filed as functional. The following applies: dose 1 µmol/kg, time 15 day.
For another series, the target named is Chymotrypsin (Homo sapiens, UniProt Q99895+P17538+P40313+Q6GPI1). The series can be described thus: Stability of compound assessed as chymotrypsin (unknown origin) mediated compound degradation by measuring fold change of half-life by RP-HPLC analysis relative to BimBH312-mer peptide. Format: ADME, protein assay.
The target in series [5] is T2, Tyrosine-protein phosphatase non-receptor type 2 (Homo sapiens) (UniProt P17706).
T2 sequence (whole entry): T1 sequence (P17706 whole entry)
Put plainly: Inhibition of recombinant human TC-PTP (1 to 314 residues) expressed in baculovirus infected insect cells using pNPP as substrate assessed as substrate hydrolysis at 50 umol/L relative to control. The following applies: Insect cell, dose 50.0 µmol/L.

Series [6] relates to Mus musculus. The series can be described thus: Antidiabetic activity against C57BL/Ks db/db mouse assessed as reduction in fasting blood glucose level at 1 uM/kg, sc administered once every 3 days for 2 weeks by glucometer analysis. Format: functional, organism-based.
The next series deals with Proteinase K. The series can be described thus: Stability of compound assessed as Proteinase K (unknown origin) mediated compound degradation by measuring half-life by HPLC analysis. It is filed as ADME.
Series [7] deals with Mus musculus. Put plainly: Antidiabetic activity against C57BL/Ks db/db mouse assessed as redcution in fasting blood glucose level at 1 umol/kg, sc administered once a week and measured on day 8 by glucometer analysis (reference value: 27.7 +/- 3.7 […]). It is filed as functional. The following applies: dose 1 µmol/kg, time 8 day.

As a reminder, the IC50 is the midpoint of a concentration-inhibition curve. For orientation: inhibition means the drop in the measured response relative to a control, in per cent. As usually defined, the half-life is the time in which the quantity being followed falls by half. Take `CC[C@H](C)[C@H](NC(=O)CCCCCCCCCCCCCCCCC(=O)O)C(=O)N[C@@H](C)C(=O)N[C@@H](CCC(N)=O)C(=O)N[C@@H](CCC(=O)O)C(=O)N[C@@H](CC(C)C)C(=O)N[C@@H](CCCNC(=N)N)C(=O)NC(CCCNC(=N)N)C(=O)N[C@H](C(=O)NCC(=O)N[C@@H](CC(=O)O)C(=O)N[C@@H](CCC(=O)O)C(=O)N[C@@H](Cc1ccccc1)C(=O)O)[C@@H](C)CC` (stereo partly drawn) ({C18 diacid}-IAQELR[ξR]IGDEF-OH): the outcome in the series on Mus musculus [1] and in the series with Mus musculus [6] was Active. Further, the half-inhibitory concentration (IC50) in [2] was > 50 µM. In addition, the “fold change (FC)” value in series [3] turned out to be 307.7; at Chymotrypsin, 4.7. In addition, the Ratio IC50 in the series listed under Homo sapiens is > 130. In addition, the Fasting blood glucose with Mus musculus [4] amounted to 8.7 mmol/L. Besides, in series [5], the inhibition is < 50%. Further, in the series with Proteinase K, the half-life was 7.8 min. The “Fasting blood glucose level” value in the series with Mus musculus [7] stood at 11.1 mmol/L.
As to `CCCCCCCCCCCCCC(=O)N[C@H](C(=O)N[C@@H](C)C(=O)N[C@@H](CCC(N)=O)C(=O)N[C@@H](CCC(=O)O)C(=O)N[C@@H](CC(C)C)C(=O)N[C@@H](CCCNC(=N)N)C(=O)NC(CCCNC(=N)N)C(=O)N[C@H](C(=O)NCC(=O)N[C@@H](CC(=O)O)C(=O)N[C@@H](CCC(=O)O)C(=O)N[C@@H](Cc1ccccc1)C(=O)O)[C@@H](C)CC)[C@@H](C)CC` (stereo partly drawn) (Myristoyl-IAQELR[ξR]IGDEF-OH), the IC50 in [2] is > 50 µM. The “fold change (FC)” value in [3] was 29.5; on Chymotrypsin, 68.8. The Ratio IC50 in the series filed under Homo sapiens was > 190. Further, the Fasting blood glucose in the series with Mus musculus [4] worked out at 8.3 mmol/L. Also, the inhibition in [5] was < 50%. In addition, the half-life in the series with Proteinase K is 17.4 min. In the series on Mus musculus [7], the “Fasting blood glucose level” value came to 10.3 mmol/L.
